Where two headings read alike, the source gives them in different places.
Key:
[1] = tested on: Ba/F3_Del19/T790M/C797S cells; assay: Ba/F3_Del19/T790M/C797S cell proliferation inhibition assay (CellTiter-Glo); format: cell-based; conditions: Mus musculus
Experimental: Ba/F3_Del19/T790M/C797S Cell Proliferation Inhibition Assay
In the assay, the inhibition effect of the compounds on the proliferation of Ba/F3_Del19/T790M/C797S cells was tested by adopting a CellTiter-Glo method, and the concentration IC50 of the compound for inhibiting half maximal growth of cells was obtained.
Ba/F3_Del19/T790M/C797S, purchased from Kyinno Biotechnology Co., Ltd. 1640 medium, fetal bovine serum (FBS), Penicillin-Streptomyces, and GlutaMAX-I Supplement, purchased from GIBCO.
(§1) Brigatinib, purchased from Selleck.
(§2) CellTiter-Glo reagent, purchased from Promega.
1) Ba/F3_Del19/T790M/C797S cells were seeded in a 384-well plate at a density of 700 cells/well with 30 μL/well.
(§3) 2) Day 0: […] of gradiently-diluted compounds to be tested with a final concentration of DMSO of 0.1% was added to plate using Echo, and the plate was incubated in a cell incubator for 72 h (37° C., 5% CO2). […] of DMSO was added into each well in blank control group.
(§4) 3) Day 3: 30 μL Cell Titer-Glo reagent was added to each well, and the plate was in the dark under room temperature for 30 min.
(§5) 4) The chemiluminescent signal was detected by an Envision plate reader (PerkinElmer).
Data analysis was performed using GraphPad Prism 6 software to give the IC50 for compounds.

A431 cells (EGFR WT) = assay: A431 cell proliferation inhibition assay (CellTiter-Glo); format: cell-based; conditions: Homo sapiens
Experimental: A431 Cell Proliferation Inhibition Assay
In the assay, the inhibition effect of the compounds on the proliferation of A431 cells was tested by adopting a CellTiter-Glo method, and the concentration IC50 of the compound for inhibiting half maximal growth of cells was obtained.
A431 cells, purchased from ATCC.
DMEM medium, fetal bovine serum (FBS), and Penicillin-Streptomycin, purchased from GIBCO.
as §1, §2
1) A431 cells were seeded in a 384-well plate at a density of 800 cells/well with 30 μL/well, and the plate was cultured in a cell incubator for 24 h (37° C., 5% CO2).
as §3, §4, §5
(§6) 5) Data analysis was performed using GraphPad Prism software to give the IC50 for compounds.

EGFR WT (wild type EGFR) = EGFR WT (wild type EGFR) (Homo sapiens (Human), UniProt P00533); assay: In vitro enzymatic TR-FRET (HTRF KinEASE-TK) kinase assay, EGFR WT; format: biochemical; conditions: kinase activity, TR-FRET; read-out: EGFR (WT) IC50
EGFR WT (wild type EGFR), sequence (P00533 25-1210): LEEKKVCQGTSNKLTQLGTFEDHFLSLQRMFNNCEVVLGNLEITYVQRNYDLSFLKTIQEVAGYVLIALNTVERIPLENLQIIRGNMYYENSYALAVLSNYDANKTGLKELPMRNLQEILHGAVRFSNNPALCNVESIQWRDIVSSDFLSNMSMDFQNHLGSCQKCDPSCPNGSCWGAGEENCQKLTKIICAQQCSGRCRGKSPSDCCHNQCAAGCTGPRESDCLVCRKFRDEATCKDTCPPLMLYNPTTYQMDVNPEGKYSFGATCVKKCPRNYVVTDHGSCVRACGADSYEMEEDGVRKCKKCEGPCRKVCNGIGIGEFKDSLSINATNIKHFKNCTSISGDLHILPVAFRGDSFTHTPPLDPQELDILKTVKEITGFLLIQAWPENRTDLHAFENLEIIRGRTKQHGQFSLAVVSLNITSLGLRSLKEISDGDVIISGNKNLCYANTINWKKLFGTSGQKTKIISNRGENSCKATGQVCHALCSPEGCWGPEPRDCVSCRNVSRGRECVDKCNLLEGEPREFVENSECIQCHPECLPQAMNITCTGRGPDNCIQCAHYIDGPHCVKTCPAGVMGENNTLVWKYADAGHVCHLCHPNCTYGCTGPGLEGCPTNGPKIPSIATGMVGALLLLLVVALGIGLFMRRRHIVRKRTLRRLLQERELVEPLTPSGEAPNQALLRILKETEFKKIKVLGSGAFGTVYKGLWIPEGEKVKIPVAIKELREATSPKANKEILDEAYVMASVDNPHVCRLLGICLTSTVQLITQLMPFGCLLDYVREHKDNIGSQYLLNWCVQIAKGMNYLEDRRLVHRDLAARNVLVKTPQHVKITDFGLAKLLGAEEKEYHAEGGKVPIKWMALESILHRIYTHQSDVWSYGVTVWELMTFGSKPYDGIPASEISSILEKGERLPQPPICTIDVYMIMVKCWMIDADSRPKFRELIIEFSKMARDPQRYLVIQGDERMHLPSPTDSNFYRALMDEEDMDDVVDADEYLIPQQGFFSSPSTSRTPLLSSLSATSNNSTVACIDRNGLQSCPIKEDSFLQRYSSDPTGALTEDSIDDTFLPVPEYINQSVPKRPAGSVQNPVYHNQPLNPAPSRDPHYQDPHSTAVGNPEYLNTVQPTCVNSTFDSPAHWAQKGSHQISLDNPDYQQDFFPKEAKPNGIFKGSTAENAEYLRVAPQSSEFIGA
Experimental: (I) In Vitro Enzymatic Experiment for EGFR WT and EGFR L858R/T790M/C797S
In the assay, the inhibition effect of the compound on the kinase activity of EGFR WT (wild type EGFR) and EGFR L858R/T790M/C797S was tested by adopting a time-resolved fluorescence resonance energy transfer (TR-FRET) method, and half maximal inhibitory concentration IC50 of the compound on the kinase activity of EGFR was obtained.
EGFR recombinase and EGFR L858R/T790M/C797S recombinase, purchased from Signalchem.
HTRF KinEASE-TK kit, purchased from Cisbio.
DTT, MnCl2, and MgCl2, purchased from Sigma.
ATP, purchased from Promega.
as §1
1) 1× working solution was prepared: 5 mM MgCl2; 1 mM DTT; 1 mM MnCl2 and 1× kinase buffer (in kit).
2) […] of gradiently-diluted compound was transferred to a 384-well plate using Echo 550 (Labcyte).
3) 5 μL of 2× EGFR WT or EGFR L858R/T790M/C797S recombinase solution was added to the 384-well plate, and the plate was incubated at room temperature for 10 min.
4) 5 μL of 2× TK-substrate-biotin substrate solution (containing ATP) was added to the 384-well plate, and the plate was incubated at room temperature for 40 min.
5) 5 μL of assay solution containing Sa-XL 665 HTRF and 5 μL of TK-antibody-Cryptatewas were added to the plate, and the plate was incubated at room temperature for 1 h.
6) The fluorescence signal values at 615 nm and 665 nm were measured for each well using an Envision microplate reader (PerkinElmer).
7) The ratio of fluorescence signal values at 665 nm and 615 nm was calculated for each well.
8) Data analysis was performed using GraphPad Prism software to give the IC50 for compounds.

[2] = tested on: Ba/F3_L858R/T790M/C797S cells; assay: Ba/F3_L858R/T790M/C797S cell proliferation inhibition assay (CellTiter-Glo); format: cell-based; conditions: Mus musculus
Experimental: Ba/F3_L858R/T790M/C797S Cell Proliferation Inhibition Assay
In the assay, the inhibition effect of the compounds on the proliferation of Ba/F3_L858R/T790M/C797S cells was tested by adopting a CellTiter-Glo method, and the concentration IC50 of the compound for inhibiting half maximal growth of cells was obtained.
Ba/F3_L858R/T790M/C797S cells were constructed by Pharmaron Beijing Co., Ltd.
1640 medium, fetal bovine serum (FBS), Penicillin-Streptomyces, and GlutaMAX-I Supplement, purchased from GIBCO.
as §1, §2
1) Ba/F3_L858R/T790M/C797S cells were seeded in a 384-well plate at a density of 700 cells/well with 30 μL/well.
as §3, §4, §5, §6

[3] = BaF3, cell proliferation, 72 h, CellTiter-Glo, read-out: Ba/F3 (Del19/T790M/C797S) IC50
[4] = A-431, cell proliferation, 72 h, CellTiter-Glo, read-out: A431 EGFR WT IC50
[5] = BaF3, cell proliferation, 72 h, CellTiter-Glo, read-out: Ba/F3 (L858R/T790M/C797S) IC50
[6] = BaF3, 72 h, read-out: Ba/F3 (Del19/T790M/C797S) IC50(nM)
[7] = A-431, 72 h, read-out: A431 EGFR WT IC50(nM)
[8] = BaF3, 72 h, read-out: Ba/F3 (L858R/T790M/C797S) IC50(nM)

Compound | IC50 [1, 3] [nM] | IC50 (A431 cells (EGFR WT); [4]) [nM] | IC50 (EGFR WT (wild type EGFR)) [nM] | IC50 [2, 5] [nM] | IC50 [1, 6] [nM] | IC50 (A431 cells (EGFR WT); [7]) [nM] | IC50 [2, 8] [nM]
COc1cc2c(cc1Nc1ncc(Br)c(Nc3ccccc3P(C)(C)=O)n1)-c1scnc1CCN2C [Compound 42] | < 10 | 100 to 1000 | 1 to 10 | < 10 | – | – | –
COc1cc2c(cc1Nc1ncc(Br)c(Nc3ccc4nccnc4c3NS(C)(=O)=O)n1)-c1cn(C)nc1CCN2C(C)C [Compound 112] | < 10 | 100 to 1000 | 1 to 10 | 10 to 50 | – | – | –
COc1cc2c(cc1Nc1ncc(Br)c(Nc3ccccc3N(C)S(=O)(=O)C3CC3)n1)-c1cnn(C)c1CCN2C [Compound 3] | < 10 | 100 to 1000 | 1 to 10 | < 10 | – | – | –
COc1cc2c(cc1Nc1ncc(Br)c(Nc3ccnc(C)c3P(C)(C)=O)n1)-c1cnn(C)c1CCN2C(C)C [Compound 111] | < 10 | 100 to 1000 | 1 to 10 | 10 to 50 | – | – | –
COc1cc2c(cc1Nc1ncc(Br)c(Nc3ccccc3P(C)(C)=O)n1)-c1cnnn1CCN2C [Compound 48] | < 10 | 100 to 1000 | 10 to 50 | 10 to 50 | – | – | –
COc1cc2c(cc1Nc1ncc(Br)c(Nc3ccccc3P(C)(C)=O)n1)-c1cnn(C)c1CCN2CC(F)(F)F [Compound 73] | 10 to 50 | 100 to 1000 | 10 to 50 | 10 to 50 | – | – | –
COc1cc2c(cc1Nc1ncc(Br)c(Nc3ccccc3P(C)(C)=O)n1)-c1cnn(C)c1CCN2C1COC1 [Compound 64] | < 10 | 100 to 1000 | – | 10 to 50 | – | – | –
COc1cc2c(cc1Nc1ncc(Br)c(Nc3ccccc3N(C(C)C)S(C)(=O)=O)n1)-c1cnn(C)c1CCN2C(C)C [Compound 124] | 10 to 50 | > 1000 | – | 10 to 50 | – | – | –
COc1cc2c(cc1Nc1ncc(Br)c(Nc3ccc4nccnc4c3NS(C)(=O)=O)n1)-c1cnn(C)c1CCN2 [Compound 114] | – | – | – | – | < 10 | 100 to 1000 | < 10
COc1cc2c(cc1Nc1ncc(Br)c(Nc3ccccc3P(C)(C)=O)n1)-c1cnn(C)c1CCC2N (stereo not drawn) [Compound 50] | – | – | – | – | 10 to 50 | 100 to 1000 | 10 to 50
COc1cc2c(cc1Nc1ncc(Br)c(Nc3ccc4nccnc4c3P(C)(C)=S)n1)-c1cnn(C)c1CCN2C1CCN(C)CC1 [Compound 76] | – | – | – | – | < 10 | 50 to 100 | < 10
CNS(=O)(=O)c1ccccc1Nc1nc(Nc2cc3c(cc2OC)N(C(C)C)CCc2c-3cnn2C)ncc1Br [Compound 127] | 100 to 1000 | 100 to 1000 | – | 100 to 1000 | – | – | –
COc1cc2c(cc1Nc1ncc(Br)c(Nc3ccc4nccnc4c3P(C)(C)=S)n1)-c1cnn(C)c1CCN2C1CC2(C1)CN(C)C2 [Compound 93] | – | – | – | – | < 10 | 10 to 50 | 10 to 50
COc1cc2c(cc1Nc1ncc(Br)c(Nc3ccccc3NS(C)(=O)=O)n1)-c1cnn(C)c1CCN2C [Compound 32] | < 10 | 100 to 1000 | – | < 10 | – | – | –
COc1cc2c(cc1Nc1ncc(Br)c(Nc3ccccc3P(C)(C)=O)n1)-c1cnn(C)c1CCN2C1CN(CCF)C1 [Compound 69] | < 10 | 100 to 1000 | – | < 10 | – | – | –

Further lines, with some results ahead:

IC50 [1, 3] [nM] | IC50 (A431 cells (EGFR WT); [4]) [nM] | IC50 (EGFR WT (wild type EGFR)) [nM] | IC50 [2, 5] [nM] | Compound | IC50 [1, 6] [nM] | IC50 (A431 cells (EGFR WT); [7]) [nM] | IC50 [2, 8] [nM]
< 10 | 10 to 50 | – | < 10 | COc1cc2c(cc1Nc1ncc(Br)c(Nc3ccc4nccnc4c3P(C)(C)=O)n1)-c1cnn(C)c1CCN2C1CCN(C)CC1 [Compound 62] | – | – | –
< 10 | 10 to 50 | – | < 10 | COc1cc2c(cc1Nc1ncc(Br)c(Nc3ccc4nccnc4c3P(C)(C)=O)n1)-c1cnn(C)c1CCN2C1CN(CC2CC2)C1 [Compound 70] | – | – | –
10 to 50 | 100 to 1000 | – | 10 to 50 | COc1cc2c(cc1Nc1ncc(Br)c(Nc3ccccc3P(C)(C)=O)n1)-c1cnn(C)c1CCN2C1CN(C)C1 [Compound 59] | – | – | –
< 10 | 10 to 50 | – | < 10 | COc1cc2c(cc1Nc1ncc(Br)c(Nc3ccc4nccnc4c3P(C)(C)=O)n1)-c1cnn(C)c1CCN2C1CC2(C1)CN(C(C)C)C2 [Compound 90] | – | – | –
< 10 | 100 to 1000 | – | < 10 | COc1cc2c(cc1Nc1ncc(C)c(Nc3ccc4nccnc4c3P(C)(C)=O)n1)-c1cnn(C)c1CCN2C(C)C [Compound 85] | – | – | –
< 10 | 100 to 1000 | – | < 10 | COc1cc2c(cc1Nc1ncc(Br)c(Nc3ccc4nccnc4c3NS(C)(=O)=O)n1)-c1cnn(C)c1CCN2CC(C)C [Compound 133] | – | – | –
< 10 | 50 to 100 | – | < 10 | COc1cc2c(cc1Nc1ncc(Br)c(Nc3ccc4nccnc4c3P(C)(C)=O)n1)-c1cnn(C)c1CCN2C [Compound 1] | – | – | –
< 10 | 10 to 50 | – | < 10 | COc1cc2c(cc1Nc1ncc(Br)c(Nc3ccc4nccnc4c3P(C)(C)=O)n1)-c1cnn(C)c1CCN2C1CCCN(C)C1 (stereo not drawn) [Compound 84] | – | – | –
< 10 | 10 to 50 | – | < 10 | COc1cc2c(cc1Nc1ncc(Br)c(Nc3ccc4nccnc4c3P(C)(C)=O)n1)-c1cnn(C)c1CCN2C1CN(C(C)C)C1 [Compound 63] | – | – | –
10 to 50 | 10 to 50 | – | 10 to 50 | COc1cc2c(cc1Nc1ncc(Br)c(Nc3ccc4nccnc4c3P(C)(C)=O)n1)-c1cnn(C)c1CCN2C1CC2(C1)CN(C)C2 [Compound 89] | – | – | –
< 10 | 50 to 100 | – | < 10 | COc1cc2c(cc1Nc1ncc(Br)c(Nc3ccc4nccnc4c3P(C)(C)=O)n1)-c1cnn(C)c1CCN2C1CCOCC1 [Compound 88] | – | – | –
< 10 | 100 to 1000 | – | < 10 | CCN1CCc2c(cnn2C)-c2cc(Nc3ncc(Br)c(Nc4ccc5nccnc5c4NS(C)(=O)=O)n3)c(OC)cc21 [Compound 139] | – | – | –
< 10 | 100 to 1000 | – | < 10 | COc1cc2c(cc1Nc1ncc(Br)c(Nc3ccc4nccnc4c3P(C)(C)=O)n1)-c1cnn(C)c1CCN2C1CC1 [Compound 74] | – | – | –
< 10 | 50 to 100 | – | < 10 | COc1cc2c(cc1Nc1ncc(Cl)c(Nc3ccc4nccnc4c3P(C)(C)=O)n1)-c1cnn(C)c1CCN2C [Compound 13] | – | – | –
< 10 | 50 to 100 | – | < 10 | COc1cc2c(cc1Nc1ncc(Br)c(Nc3ccc4nccnc4c3P(C)(C)=O)n1)-c1cnn(C)c1CCN2C1CCN(C)CC1F (stereo not drawn) [Compound 67] | – | – | –

From US20240034743A9, “TRICYCLIC COMPOUNDS AS EGFR INHIBITORS” (QILU PHARMACEUTICAL CO., LTD., priority 2020, published 2024)
